Laboratory results reported in the supplement of paper PMC10307832.

Assays:
Assay in all cases: relative viability (nuclei count vs DMSO), 5 days (fraction); higher = more cells survive
EMC-BAC-2 = system: EMC-BAC-2
Method in brief: (§1)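 A single step with final 0.05% Triton X-100, 1% formaldehyde and 1 ug/ml Hoechst fixed the cells and stained nuclei 5 days after treatment. Lung cancer cell lines in 1536-well plates had been treated by pin tool the day after seeding with one drug alone or a fixed anchor-drug dose plus five library-drug doses (not always all listed) in √10 steps, and nuclei were counted on 4× images. Relative viability is the ratio of nuclei in treated wells to nuclei in vehicle wells, taken as the median of duplicate plates.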

EPLC-272H = system: EPLC-272H
Method in brief: as §1

H3255 = system: H3255
Method in brief: as §1

HOP-62 = system: HOP-62
Method in brief: as §1

LCLC-97TM1 = system: LCLC-97TM1
Method in brief: as §1

LXF-289 = system: LXF-289
Method in brief: as §1

NCI-H1563 = system: NCI-H1563
Method in brief: as §1

NCI-H1734 = system: NCI-H1734
Method in brief: as §1

NCI-H1915 = system: NCI-H1915
Method in brief: as §1

NCI-H1993 = system: NCI-H1993
Method in brief: as §1

NCI-H2009 = system: NCI-H2009
Method in brief: as §1

NCI-H2023 = system: NCI-H2023
Method in brief: as §1

NCI-H2085 = system: NCI-H2085
Method in brief: as §1

NCI-H2126 = system: NCI-H2126
Method in brief: as §1

NCI-H2347 = system: NCI-H2347
Method in brief: as §1

NCI-H322M = system: NCI-H322M
Method in brief: as §1

NCI-H647 = system: NCI-H647
Method in brief: as §1

NCI-H661 = system: NCI-H661
Method in brief: as §1

NCI-H727 = system: NCI-H727
Method in brief: as §1

PC-14 = system: PC-14
Method in brief: as §1

SK-LU-1 = system: SK-LU-1
Method in brief: as §1

SW 1573 = system: SW 1573
Method in brief: as §1

CCN(CC)CCCCNc1ncc2cc(-c3cc(OC)cc(OC)c3)c(NC(=O)NC(C)(C)C)nc2n1 + CC(C)C[C@H](NC(=O)[C@H](Cc1ccccc1)NC(=O)c1cnccn1)B(O)O [Bortezomib] (partner 0.002 µM)
relative viability (EMC-BAC-2; first compound 0.01 µM): 1.11
relative viability (EMC-BAC-2; first compound 0.03162 µM): 1.07
relative viability (EMC-BAC-2; first compound 0.1 µM): 1.11
relative viability (EMC-BAC-2; first compound 0.3162 µM): 1.19
relative viability (EMC-BAC-2; first compound 1 µM): 1.04
relative viability (EPLC-272H; first compound 0.01 µM): 1.02
relative viability (EPLC-272H; first compound 0.1 µM): 0.921
relative viability (EPLC-272H; first compound 0.3162 µM): 1.03
relative viability (EPLC-272H; first compound 1 µM): 0.796
relative viability (H3255; first compound 0.01 µM): 0.762
relative viability (H3255; first compound 0.03162 µM): 0.773
relative viability (H3255; first compound 0.1 µM): 1.02
relative viability (H3255; first compound 0.3162 µM): 1.21
relative viability (H3255; first compound 1 µM): 0.656
relative viability (HOP-62; first compound 0.01 µM): 0.726
relative viability (HOP-62; first compound 0.03162 µM): 0.888
relative viability (HOP-62; first compound 0.1 µM): 0.728
relative viability (HOP-62; first compound 0.3162 µM): 0.717
relative viability (HOP-62; first compound 1 µM): 0.79
relative viability (LCLC-97TM1; first compound 0.01 µM): 0.723
relative viability (LCLC-97TM1; first compound 0.03162 µM): 0.614
relative viability (LCLC-97TM1; first compound 0.1 µM): 0.789
relative viability (LCLC-97TM1; first compound 0.3162 µM): 1.54
relative viability (LCLC-97TM1; first compound 1 µM): 0.305
relative viability (LXF-289; first compound 0.01 µM): 0.99
relative viability (LXF-289; first compound 0.03162 µM): 1.08
relative viability (LXF-289; first compound 0.1 µM): 1.16
relative viability (LXF-289; first compound 0.3162 µM): 0.955
relative viability (LXF-289; first compound 1 µM): 0.846
relative viability (NCI-H1563; first compound 0.01 µM): 0.722
relative viability (NCI-H1563; first compound 0.03162 µM): 0.847
relative viability (NCI-H1563; first compound 0.1 µM): 0.818
relative viability (NCI-H1563; first compound 0.3162 µM): 0.809
relative viability (NCI-H1563; first compound 1 µM): 0.52
relative viability (NCI-H1734; first compound 0.01 µM): 0.941
relative viability (NCI-H1734; first compound 0.03162 µM): 0.901
relative viability (NCI-H1734; first compound 0.1 µM): 1.11
relative viability (NCI-H1734; first compound 0.3162 µM): 1.11
relative viability (NCI-H1734; first compound 1 µM): 0.874
relative viability (NCI-H1915; first compound 0.01 µM): 1.07
relative viability (NCI-H1915; first compound 0.03162 µM): 1.1
relative viability (NCI-H1915; first compound 0.1 µM): 1.18
relative viability (NCI-H1915; first compound 0.3162 µM): 1.09
relative viability (NCI-H1915; first compound 1 µM): 0.951
relative viability (NCI-H1993; first compound 0.01 µM): 1
relative viability (NCI-H1993; first compound 0.03162 µM): 0.981
relative viability (NCI-H1993; first compound 0.1 µM): 1.26
relative viability (NCI-H1993; first compound 0.3162 µM): 1.41
relative viability (NCI-H1993; first compound 1 µM): 1.11
relative viability (NCI-H2009; first compound 0.01 µM): 0.958
relative viability (NCI-H2009; first compound 0.03162 µM): 1.06
relative viability (NCI-H2009; first compound 0.1 µM): 1.1
relative viability (NCI-H2009; first compound 0.3162 µM): 1.07
relative viability (NCI-H2009; first compound 1 µM): 0.966
relative viability (NCI-H2023; first compound 0.01 µM): 0.925
relative viability (NCI-H2023; first compound 0.03162 µM): 1.08
relative viability (NCI-H2023; first compound 0.1 µM): 1.16
relative viability (NCI-H2023; first compound 0.3162 µM): 1.13
relative viability (NCI-H2023; first compound 1 µM): 0.968
relative viability (NCI-H2085; first compound 0.01 µM): 0.991
relative viability (NCI-H2085; first compound 0.03162 µM): 1.03
relative viability (NCI-H2085; first compound 0.1 µM): 1.09
relative viability (NCI-H2085; first compound 0.3162 µM): 1.15
relative viability (NCI-H2085; first compound 1 µM): 0.999
relative viability (NCI-H2126; first compound 0.01 µM): 1.23
relative viability (NCI-H2126; first compound 0.03162 µM): 1.16
relative viability (NCI-H2126; first compound 0.1 µM): 1.22
relative viability (NCI-H2126; first compound 0.3162 µM): 1.19
relative viability (NCI-H2126; first compound 1 µM): 1.13
relative viability (NCI-H2347; first compound 0.01 µM): 0.855
relative viability (NCI-H2347; first compound 0.03162 µM): 0.864
relative viability (NCI-H2347; first compound 0.1 µM): 1.2
relative viability (NCI-H2347; first compound 0.3162 µM): 1.16
relative viability (NCI-H2347; first compound 1 µM): 0.639
relative viability (NCI-H322M; first compound 0.01 µM): 1.29
relative viability (NCI-H322M; first compound 0.03162 µM): 1.36
relative viability (NCI-H322M; first compound 0.1 µM): 1.35
relative viability (NCI-H322M; first compound 0.3162 µM): 1.39
relative viability (NCI-H322M; first compound 1 µM): 1.08
relative viability (NCI-H647; first compound 0.01 µM): 1.02
relative viability (NCI-H647; first compound 0.03162 µM): 0.996
relative viability (NCI-H647; first compound 0.1 µM): 1.6
relative viability (NCI-H647; first compound 0.3162 µM): 1.08
relative viability (NCI-H647; first compound 1 µM): 1.07
relative viability (NCI-H661; first compound 0.01 µM): 0.892
relative viability (NCI-H661; first compound 0.03162 µM): 0.811
relative viability (NCI-H661; first compound 0.1 µM): 0.745
relative viability (NCI-H661; first compound 0.3162 µM): 0.922
relative viability (NCI-H661; first compound 1 µM): 0.634
relative viability (NCI-H727; first compound 0.01 µM): 1.39
relative viability (NCI-H727; first compound 0.03162 µM): 0.871
relative viability (NCI-H727; first compound 0.1 µM): 0.809
relative viability (NCI-H727; first compound 0.3162 µM): 1.2
relative viability (NCI-H727; first compound 1 µM): 0.783
relative viability (PC-14; first compound 0.01 µM): 0.894
relative viability (PC-14; first compound 0.03162 µM): 0.855
relative viability (PC-14; first compound 0.1 µM): 0.947
relative viability (PC-14; first compound 0.3162 µM): 0.962
relative viability (PC-14; first compound 1 µM): 0.843
relative viability (SK-LU-1; first compound 0.01 µM): 1.1
relative viability (SK-LU-1; first compound 0.03162 µM): 0.911
relative viability (SK-LU-1; first compound 0.1 µM): 1.27
relative viability (SK-LU-1; first compound 0.3162 µM): 1.75
relative viability (SK-LU-1; first compound 1 µM): 1.06
relative viability (SW 1573; first compound 0.01 µM): 1.03
relative viability (SW 1573; first compound 0.03162 µM): 0.991
relative viability (SW 1573; first compound 0.1 µM): 1.07
relative viability (SW 1573; first compound 0.3162 µM): 1.03
relative viability (SW 1573; first compound 1 µM): 0.936
